In patent US11207312B2, “Metallo-beta-lactamase inhibitors and methods of use thereof” (priority 2017, dated 2021):

Assays:
NDM-1 = NDM-1 (Klebsiella pneumoniae, UniProt C7C422); assay: biochemical; assay type: biochemical; conditions: CCF2-FA fluorescence assay, 2 hours at 25° C.
Outline: (§1)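 In 100 mM phosphate pH 7 containing Tween-20 and ZnSO4, NDM-1 (1 pM), IMP-1 (2 pM) or VIM-1 (30 pM) hydrolysed 1.25 μM CCF2-FA over 2 hours at 25° C with inhibitor present. Readout was 405/460 nm fluorescence.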

IMP-1 = IMP-1 (Serratia marcescens, UniProt P52699); assay: biochemical; conditions: CCF2-FA fluorescence assay, 2 hours at 25° C.; read-out: IMP1 IC50
Outline: as §1

VIM-1 = VIM-1 (Pseudomonas aeruginosa (strain ATCC 15692 / DSM 22644 / CIP 104116 / JCM 14847 / LMG 12228 / 1C / PRS 101 / PAO1), UniProt A0A0F7KYQ8); assay: biochemical; conditions: CCF2-FA fluorescence assay, 2 hours at 25° C.; read-out: VIM1 IC50
Outline: as §1

VIM-2 = VIM-2 (Escherichia coli, UniProt Q5U7L7); assay: biochemical; conditions: CCF2-FA fluorescence assay; read-out: VIM2 IC50
[1] = test system: Escherichia coli expressing NDM-1 (CLB30016); assay type: cell-based; conditions: with imipenem 1 μg/ml; 95% inhibition of bacterial growth
Outline: (§2)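 MITC95 denotes the minimal test-compound level that, combined with 1 μg/ml imipenem, blocks 95% of bacterial growth, measured by absorbance. Overnight-grown clinical isolates were diluted 1:100 in CAMHB and incubated with both agents at 35° C for 22–24 h.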

[2] = test system: Klebsiella pneumoniae expressing VIM-1 (IHMA599644); assay type: cell-based; conditions: with imipenem 1 μg/ml; 95% inhibition of bacterial growth
Outline: as §2

[3] = test system: Serratia marcescens expressing IMP-1 (CL5741); assay type: cell-based; conditions: with imipenem 1 μg/ml; 95% inhibition of bacterial growth
Outline: as §2

[4] = test system: P. aeruginosa MB9798 (efflux+, IMP-1 plasmid); conditions: for MB9798 MITC95 P. aeruginosa uM Efflux WT: efflux + (MB9798) strain, imipenem at 2 μg/mL, in the presence of a class A, C, D serine β-lactamase inhibitor closely related to relebactam; for Efflux ratio: fold difference between efflux+ (MB9798) and efflux− (MB9799) strains
Outline: (§3)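 PAO1-derived isogenic pair (oprD+, inducible AmpC), efflux+ MB5919 or efflux− MB5890 parent, carrying an electroporated IMP-1 plasmid from a clinical isolate. Microbroth MIC with fixed imipenem and/or ceftazidime (usually CLSI breakpoint) plus fixed class A/C inhibitor; MBL inhibitor serially titrated, concentration restoring susceptibility recorded.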

[5] = test system: P. aeruginosa MB9799 (efflux-, IMP-1 plasmid); assay type: cell-based, Pseudomonas aeruginosa; conditions: efflux − (MB9799) strain; imipenem at 2 μg/mL; in the presence of a class A, C, D serine β-lactamase inhibitor closely related to relebactam
Outline: as §3

Chain of IMP-1 (P52699 whole entry, looked up, species assumed): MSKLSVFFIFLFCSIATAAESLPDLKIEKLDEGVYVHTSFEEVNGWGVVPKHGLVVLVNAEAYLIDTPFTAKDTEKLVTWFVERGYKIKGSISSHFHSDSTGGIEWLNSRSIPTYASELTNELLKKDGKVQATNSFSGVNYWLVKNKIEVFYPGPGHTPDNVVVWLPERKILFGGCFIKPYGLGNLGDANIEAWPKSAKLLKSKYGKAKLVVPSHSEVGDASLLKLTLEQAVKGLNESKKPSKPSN
Chain of NDM-1 (C7C422 whole entry, looked up, species assumed): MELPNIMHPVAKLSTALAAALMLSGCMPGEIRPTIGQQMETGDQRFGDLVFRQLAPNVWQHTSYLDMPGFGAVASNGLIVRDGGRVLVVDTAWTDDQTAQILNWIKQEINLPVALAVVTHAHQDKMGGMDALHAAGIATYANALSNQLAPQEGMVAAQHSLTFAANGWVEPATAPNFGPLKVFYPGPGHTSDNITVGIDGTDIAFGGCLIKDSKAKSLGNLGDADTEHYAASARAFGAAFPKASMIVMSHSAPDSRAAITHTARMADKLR

## NS(=O)(=O)c1c(S(=O)(=O)C2CNC2)ccc(N2CC3C(CO)C3C2)c1-c1nnn[nH]1 (stereo not shown) [Example 62, 6-(azetidin-3-ylsulfonyl)-3-[6-(hydroxymethyl)-3-azabicyclo[3.1.0]hex-3-yl]-2-(1H-tetrazol-5-yl)benzenesulfonamide]
NDM-1
  IC50: 2.86 nM
IMP-1
  IC50: 4.89 nM
VIM-1
  IC50: 3.07 nM
VIM-2
  IC50: 10.5 nM
[1]
  CLB30016 E. coli MITC95 NDM: 1.56 µM
[2]
  IHMA599644 K. pneumoniae MITC95 VIM: 6.25 µM
[3]
  CL5741 S. marcescens MITC95 IMP: 3.13 µM
[4]
  MB9798 MITC95 P. aeruginosa uM Efflux WT: 50.00 µM
  Efflux ratio: 31.99
[5]
  MB9799 MITC95 P. aeruginosa uM Efflux Mutant: 1.56 µM

## NS(=O)(=O)c1c(S(=O)(=O)N[C@@H]2CCNC2)ccc(N2CCCN(CCO)CC2)c1-c1nnn[nH]1 [Example 69, 4-[4-(2-hydroxyethyl)-1,4-diazepan-1-yl]-N1-[(3R)-pyrrolidin-3-yl]-3-(1H-tetrazol-5-yl)benzene-1,2-disulfonamide]
NDM-1
  IC50: 16.2 nM
IMP-1
  IC50: 29.6 nM
VIM-1
  IC50: 1.6 nM
VIM-2
  IC50: 13.3 nM
[1]
  CLB30016 E. coli MITC95 NDM: 0.78 µM
[2]
  IHMA599644 K. pneumoniae MITC95 VIM: 1.56 µM
[3]
  CL5741 S. marcescens MITC95 IMP: 3.13 µM
[4]
  MB9798 MITC95 P. aeruginosa uM Efflux WT: 12.50 µM
  Efflux ratio: 4.00
[5]
  MB9799 MITC95 P. aeruginosa uM Efflux Mutant: 3.13 µM

## C[C@H](CN)NS(=O)(=O)c1ccc(N2CC[C@@H](N)[C@@H](F)C2)c(-c2nn[nH]n2)c1S(N)(=O)=O (racemic) [Example 5]
NDM-1
  IC50: 0.96 nM
IMP-1
  IC50: 1.81 nM
VIM-1
  IC50: 0.13 nM
VIM-2
  IC50: 2.54 nM
[1]
  CLB30016 E. coli MITC95 NDM: 0.10 µM
[2]
  IHMA599644 K. pneumoniae MITC95 VIM: 0.78 µM
[3]
  CL5741 S. marcescens MITC95 IMP: 0.20 µM
[4]
  MB9798 MITC95 P. aeruginosa uM Efflux WT: 0.78 µM
  Efflux ratio: 2.00
[5]
  MB9799 MITC95 P. aeruginosa uM Efflux Mutant: 0.39 µM

## NC[C@@H](O)CNS(=O)(=O)c1ccc(N2CCC(c3ncc[nH]3)CC2)c(-c2nn[nH]n2)c1S(N)(=O)=O [Example 201, (R)-4-(4-(1H-imidazol-2-yl)piperidin-1-yl)-N1-(3-amino-2-hydroxypropyl)-3-(2H-tetrazol-5-yl)benzene-1,2-disulfonamide]
NDM-1
  IC50: 1.83 nM
IMP-1
  IC50: 0.77 nM
VIM-1
  IC50: 0.26 nM
VIM-2
  IC50: 0.64 nM
[1]
  CLB30016 E. coli MITC95 NDM: 0.39 µM
[2]
  IHMA599644 K. pneumoniae MITC95 VIM: 1.56 µM
[3]
  CL5741 S. marcescens MITC95 IMP: 0.78 µM
[4]
  MB9798 MITC95 P. aeruginosa uM Efflux WT: 1.56 µM
  Efflux ratio: 2.00
[5]
  MB9799 MITC95 P. aeruginosa uM Efflux Mutant: 0.78 µM

## NCC(=O)N1CCN(c2ccc(S(=O)(=O)NC[C@H](O)CN)c(S(N)(=O)=O)c2-c2nn[nH]n2)CC1 [Example 119, (R)—N1-(3-amino-2-hydroxypropyl)-4-(4-(2-aminoacetyl)piperazin-1-yl)-3-(2H-tetrazol-5-yl)benzene-1,2-disulfonamide]
NDM-1
  IC50: 3.45 nM
IMP-1
  IC50: 6.56 nM
VIM-1
  IC50: 0.57 nM
VIM-2
  IC50: 10.1 nM
[1]
  CLB30016 E. coli MITC95 NDM: 0.78 µM
[2]
  IHMA599644 K. pneumoniae MITC95 VIM: 1.56 µM
[3]
  CL5741 S. marcescens MITC95 IMP: 0.78 µM
[4]
  MB9798 MITC95 P. aeruginosa uM Efflux WT: 1.56 µM
  Efflux ratio: 2.00
[5]
  MB9799 MITC95 P. aeruginosa uM Efflux Mutant: 0.78 µM

## NCCC1CCCN(c2ccc(S(=O)(=O)NC[C@H](O)CN)c(S(N)(=O)=O)c2-c2nn[nH]n2)CC1 (stereo partly drawn) [Example 140, N1-((R)-3-amino-2-hydroxypropyl)-4-(4-(2-aminoethyl)azepan-1-yl)-3-(2H-tetrazol-5-yl)benzene-1,2-disulfonamide bis(2,2,2-trifluoroacetate)]
NDM-1
  IC50: 3.75 nM
IMP-1
  IC50: 6.34 nM
VIM-1
  IC50: 0.1 nM
VIM-2
  IC50: 1.87 nM
[1]
  CLB30016 E. coli MITC95 NDM: 1.56 µM
[2]
  IHMA599644 K. pneumoniae MITC95 VIM: 0.78 µM
[3]
  CL5741 S. marcescens MITC95 IMP: 0.78 µM
[4]
  MB9798 MITC95 P. aeruginosa uM Efflux WT: 1.56 µM
  Efflux ratio: 2.00
[5]
  MB9799 MITC95 P. aeruginosa uM Efflux Mutant: 0.78 µM

## N[C@@H]1CCCN(c2ccc(S(=O)(=O)N[C@@H]3CCNC3)c(S(N)(=O)=O)c2-c2nn[nH]n2)C1=O [Example 155]
NDM-1
  IC50: 5.12 nM
IMP-1
  IC50: 81.4 nM
VIM-1
  IC50: 2.14 nM
VIM-2
  IC50: 6.87 nM
[1]
  CLB30016 E. coli MITC95 NDM: 0.39 µM
[2]
  IHMA599644 K. pneumoniae MITC95 VIM: 1.56 µM
[3]
  CL5741 S. marcescens MITC95 IMP: 3.13 µM
[4]
  MB9798 MITC95 P. aeruginosa uM Efflux WT: 6.25 µM
  Efflux ratio: 2.00
[5]
  MB9799 MITC95 P. aeruginosa uM Efflux Mutant: 3.13 µM

## NC[C@@H](O)CNS(=O)(=O)c1ccc(N2CCC(N)CC2)c(-c2nn[nH]n2)c1S(N)(=O)=O [Example 194, (R)-N1-(3-amino-2-hydroxypropyl)-4-(4-aminopiperidin-1-yl)-3-(2H-tetrazol-5-yl)benzene-1,2-disulfonamide]
NDM-1
  IC50: 26.5 nM
IMP-1
  IC50: 16 nM
VIM-1
  IC50: 0.17 nM
VIM-2
  IC50: 14.9 nM
[1]
  CLB30016 E. coli MITC95 NDM: 0.39 µM
[2]
  IHMA599644 K. pneumoniae MITC95 VIM: 0.78 µM
[3]
  CL5741 S. marcescens MITC95 IMP: 0.20 µM
[4]
  MB9798 MITC95 P. aeruginosa uM Efflux WT: 0.78 µM
  Efflux ratio: 1.00
[5]
  MB9799 MITC95 P. aeruginosa uM Efflux Mutant: 0.78 µM

## NCC=C1CCCN(c2ccc(S(=O)(=O)NC[C@H](O)CN)c(S(N)(=O)=O)c2-c2nn[nH]n2)C1 (single isomer, unassigned; isomer a) [Example 205]
NDM-1
  IC50: 7.59 nM
IMP-1
  IC50: 19.7 nM
VIM-1
  IC50: 0.34 nM
VIM-2
  IC50: 1.07 nM
[1]
  CLB30016 E. coli MITC95 NDM: 0.78 µM
[2]
  IHMA599644 K. pneumoniae MITC95 VIM: 1.56 µM
[3]
  CL5741 S. marcescens MITC95 IMP: 1.56 µM
[4]
  MB9798 MITC95 P. aeruginosa uM Efflux WT: 12.50 µM
  Efflux ratio: 8.00
[5]
  MB9799 MITC95 P. aeruginosa uM Efflux Mutant: 1.56 µM

## NS(=O)(=O)c1c(S(=O)(=O)C2CNC2)ccc(N2C[C@H](O)C[C@@H](O)C2)c1-c1nnn[nH]1 [Example 55, 6-(azetidin-3-ylsulfonyl)-3-[(3R,5R)-3,5-dihydroxypiperidin-1-yl]-2-(1H-tetrazol-5-yl)benzenesulfonamide]
NDM-1
  IC50: 51.5 nM
IMP-1
  IC50: 200 nM
VIM-1
  IC50: 62.3 nM
VIM-2
  IC50: 145 nM
[1]
  CLB30016 E. coli MITC95 NDM: 1.56 µM
[2]
  IHMA599644 K. pneumoniae MITC95 VIM: 12.50 µM
[3]
  CL5741 S. marcescens MITC95 IMP: 12.50 µM
[4]
  MB9798 MITC95 P. aeruginosa uM Efflux WT: 100.00 µM
  Efflux ratio: 16.00
[5]
  MB9799 MITC95 P. aeruginosa uM Efflux Mutant: 6.25 µM

## NS(=O)(=O)c1c(S(=O)(=O)N[C@@H]2CCNC2)ccc(N2CCCC(CO)C2)c1-c1nnn[nH]1 (stereo partly drawn) [Example 107, 4-[3-(hydroxymethyl)piperidin-1-yl]-N1-[(3R)-pyrrolidin-3-yl]-3-(1H-tetrazol-5-yl)benzene-1,2-disulfonamide]
NDM-1
  IC50: 0.25 nM
IMP-1
  IC50: 1.1 nM
VIM-1
  IC50: 0.19 nM
VIM-2
  IC50: 0.42 nM
[1]
  CLB30016 E. coli MITC95 NDM: 3.13 µM
[2]
  IHMA599644 K. pneumoniae MITC95 VIM: 6.25 µM
[3]
  CL5741 S. marcescens MITC95 IMP: 3.13 µM
[4]
  MB9798 MITC95 P. aeruginosa uM Efflux WT: 3.13 µM
  Efflux ratio: 2.00
[5]
  MB9799 MITC95 P. aeruginosa uM Efflux Mutant: 1.56 µM

## NCCC1CCN(c2ccc(S(=O)(=O)N[C@@H]3CCNC3)c(S(N)(=O)=O)c2-c2nn[nH]n2)CC1 [Example 16, (R)-4-(4-(2-aminoethyl)piperidin-1-yl)-N^1-(pyrrolidin-3-yl)-3-(2H-tetrazol-5-yl)benzene-1,2-disulfonamide]
NDM-1
  IC50: 0.72 nM
IMP-1
  IC50: 1.85 nM
VIM-1
  IC50: 0.08 nM
VIM-2
  IC50: 1.61 nM
[1]
  CLB30016 E. coli MITC95 NDM: 1.17 µM
[2]
  IHMA599644 K. pneumoniae MITC95 VIM: 1.56 µM
[3]
  CL5741 S. marcescens MITC95 IMP: 1.56 µM
[4]
  MB9798 MITC95 P. aeruginosa uM Efflux WT: 0.78 µM
  Efflux ratio: 1.00
[5]
  MB9799 MITC95 P. aeruginosa uM Efflux Mutant: 0.78 µM

## NCC1=CCN(c2ccc(S(=O)(=O)NC[C@H](O)CN)c(S(N)(=O)=O)c2-c2nn[nH]n2)CC1 [Example 175, (R)-N1-(3-amino-2-hydroxypropyl)-4-(4-(aminomethyl)-5,6-dihydropyridin-1(2H)-yl)-3-(2H-tetrazol-5-yl)benzene-1,2-disulfonamide]
NDM-1
  IC50: 2.55 nM
IMP-1
  IC50: 3.66 nM
VIM-1
  IC50: 0.24 nM
VIM-2
  IC50: 4.18 nM
[1]
  CLB30016 E. coli MITC95 NDM: 0.39 µM
[2]
  IHMA599644 K. pneumoniae MITC95 VIM: 1.56 µM
[3]
  CL5741 S. marcescens MITC95 IMP: 0.78 µM
[4]
  MB9798 MITC95 P. aeruginosa uM Efflux WT: 1.56 µM
  Efflux ratio: 2.00
[5]
  MB9799 MITC95 P. aeruginosa uM Efflux Mutant: 0.78 µM
